Consider 24 molecules from patent US20250361233A1, “Compounds For Activating Serotonin Receptor” (PSYLO PTY LTD, priority 2023, published 2025).

pEC50: −log10 of the molar value.

Holding throughout (type): cell-based
The target of one assay is T1, 5-HT2A receptor (Homo sapiens, UniProt P28223).
T1 construct: host or cells: HEK293
Kind of assay: FLIPR Ca2+ flux functional assay, agonist activity at 5-HT2A. The conditions noted are these: stably transfected HEK293 cells. As to the method: (§1) Functional assays 5-HT2A, 5-HT2B and 5-HT2C Receptors
(§2) Activity at 5-HT2A, 5-HT2B and 5-HT2C receptors was determined using a FLIPR Ca2+ flux assay at WuXi AppTec Co. Ltd. (Hong Kong) Discovery Biology Unit according to their standard protocols. Briefly, stably transfected cells expressing the receptor of interest (HEK293 for 5-HT2A and 5-HT2C; CHO-K1 for 5-HT2B) were grown and plated in a 384 well plate and incubated at 37° C. and 5% CO2 overnight. A 250 mM stock solution of probenecid in FLIPR calcium assay buffer (10 mL) was freshly prepared and combined with a fluorescent dye (Fluo-4 Direct) to give a final assay concentration of 2.5 mM. Reference compounds were 4-fold serially diluted and the screening compounds were 3-fold serially diluted in 100% DMSO for 10 points using Agilent Bravo, and 750 nL was added to a 384 well compound plate using Echo along with 30 μL assay buffer. The fluorescent dye was then added to the assay plate along with assay buffer to a final volume of 40 μL. The cell plate was incubated for 50 min at 37° C. and 5% CO2 and placed into the FLIPR Tetra along with the compound plate. 10 μL of references and compounds were then transferred from the compound plate into the cell plate and the fluorescent signal was read.

The next assay deals with T2, 5-HT2C receptor (Homo sapiens, UniProt P28335).
T2 construct: host or cells: HEK293
T2 sequence (P28335 33-458): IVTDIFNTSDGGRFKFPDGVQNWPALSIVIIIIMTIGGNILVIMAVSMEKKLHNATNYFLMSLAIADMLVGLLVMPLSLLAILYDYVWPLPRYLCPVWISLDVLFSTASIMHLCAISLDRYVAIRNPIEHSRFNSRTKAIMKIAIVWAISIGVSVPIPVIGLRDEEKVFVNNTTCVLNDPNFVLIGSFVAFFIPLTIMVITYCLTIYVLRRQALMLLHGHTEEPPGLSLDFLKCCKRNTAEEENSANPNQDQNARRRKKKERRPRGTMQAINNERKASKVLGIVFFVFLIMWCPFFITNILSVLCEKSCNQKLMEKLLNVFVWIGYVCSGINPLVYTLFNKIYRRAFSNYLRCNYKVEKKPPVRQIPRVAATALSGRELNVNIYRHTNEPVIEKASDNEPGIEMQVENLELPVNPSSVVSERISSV
Kind of assay: FLIPR Ca2+ flux functional assay, agonist activity at 5-HT2C. The conditions noted are these: stably transfected HEK293 cells. As to the method:
as §1, §2
On the technique in general: Calcium flux is commonly read through the fluorescence of an indicator in the cells.

Another assay concerns the target T3, 5-HT2B receptor (Homo sapiens, UniProt P41595).
T3 construct: host or cells: CHO-K1
Kind of assay: 5-HT2B activation in a similar assay at a single 10 μM concentration. As to the method:
Activation data are provided in a similar assay tested at a single 10 μM concentration.

T3 sequence (P41595 whole entry): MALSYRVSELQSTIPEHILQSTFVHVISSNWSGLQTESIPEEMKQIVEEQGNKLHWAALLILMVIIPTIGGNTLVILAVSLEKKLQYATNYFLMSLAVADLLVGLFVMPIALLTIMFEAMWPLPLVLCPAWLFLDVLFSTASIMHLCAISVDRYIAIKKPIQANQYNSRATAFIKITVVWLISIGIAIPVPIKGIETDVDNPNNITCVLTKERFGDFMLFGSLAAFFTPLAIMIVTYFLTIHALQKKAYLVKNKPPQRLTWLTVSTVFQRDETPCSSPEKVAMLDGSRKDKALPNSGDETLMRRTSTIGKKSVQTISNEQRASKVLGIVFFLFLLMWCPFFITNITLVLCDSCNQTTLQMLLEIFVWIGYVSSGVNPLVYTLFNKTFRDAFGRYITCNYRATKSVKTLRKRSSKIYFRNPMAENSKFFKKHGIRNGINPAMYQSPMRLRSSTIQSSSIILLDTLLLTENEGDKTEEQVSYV
T1 sequence (P28223 whole entry): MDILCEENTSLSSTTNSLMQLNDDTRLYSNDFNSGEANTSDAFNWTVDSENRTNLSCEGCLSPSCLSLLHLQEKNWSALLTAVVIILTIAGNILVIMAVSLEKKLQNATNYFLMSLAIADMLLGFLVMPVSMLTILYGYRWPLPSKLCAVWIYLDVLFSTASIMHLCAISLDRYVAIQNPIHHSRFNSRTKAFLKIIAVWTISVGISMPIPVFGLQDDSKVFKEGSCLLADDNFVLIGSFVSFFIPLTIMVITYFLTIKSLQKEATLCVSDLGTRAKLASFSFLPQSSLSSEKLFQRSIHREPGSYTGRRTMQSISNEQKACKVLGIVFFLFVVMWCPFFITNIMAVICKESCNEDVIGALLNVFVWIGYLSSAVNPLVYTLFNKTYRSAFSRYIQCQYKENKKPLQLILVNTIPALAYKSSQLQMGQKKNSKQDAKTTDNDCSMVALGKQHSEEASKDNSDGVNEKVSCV

Take `CN(CCc1c[nH]c2ncc(F)cc12)C1CC1` [Compound S1, N-(2-(5-fluoro-1H-pyrrolo[2,3-b]pyridin-3-yl)ethyl)-N-methylcyclopropanamine]: on 5-HT2A receptor, the pEC50 (in general, the EC50 on a negative log10 scale, so that one unit is a factor of ten) is 7.47 and the Emax (usually the greatest response seen or fitted, relative to the assay's reference) is 82%. On 5-HT2C receptor, the negative logarithm of the EC50 (pEC50) was 5.84 and the Emax turned out to be 77%. Besides, the “5-HT2B % Activation @ 10 μM” value on 5-HT2B receptor was 2%.
On 5-HT2A receptor, `Fc1cnc2[nH]cc(CCNC3CC3)c2c1` [Compound S2, N-(2-(5-fluoro-1H-pyrrolo[2,3-b]pyridin-3-yl)ethyl)cyclopropanamine] gave a pEC50 of 7.97 and an Emax of 92%. At 5-HT2C receptor, this molecule had a pEC50 of 6.73 and an Emax of 92%. Moreover, at 5-HT2B receptor, the “5-HT2B % Activation @ 10 μM” value was found to be 74%.
Consider `Fc1cnc2[nH]cc(CCN(C3CC3)C3CC3)c2c1` [Compound S5, N-cyclopropyl-N-(2-(5-fluoro-1H-pyrrolo[2,3-b]pyridin-3-yl)ethyl)cyclopropanamine], for which, on 5-HT2A receptor, the pEC50 was 5.97 and the Emax was 82%. Also, on 5-HT2C receptor, the pEC50 is < 5.00 and the Emax is 28%.
At 5-HT2A receptor, `Fc1cnc2[nH]cc(CCN3CCCC3)c2c1` [Compound S6, 5-fluoro-3-(2-(pyrrolidin-1-yl)ethyl)-1H-pyrrolo[2,3-b]pyridine] showed a pEC50 of 7.42 and an Emax of 81%. Moreover, on 5-HT2C receptor, the pEC50 was 5.73 and the Emax came to 81%. For the same molecule, the “5-HT2B % Activation @ 10 μM” value at 5-HT2B receptor was determined as 16%.
At 5-HT2A receptor, `Fc1cnc2[nH]cc(CCN3CCCCC3)c2c1` [Compound S7, 5-fluoro-3-(2-(piperidin-1-yl)ethyl)-1H-pyrrolo[2,3-b]pyridine] showed a pEC50 of 6.28 and an Emax of 70%. Also, on 5-HT2C receptor, the pEC50 was < 5.00 and the Emax is 2%. Also, the “5-HT2B % Activation @ 10 μM” value at 5-HT2B receptor stood at 0%.
On 5-HT2A receptor, `Fc1cnc2[nH]cc(CCN3CCC34CCC4)c2c1` [Compound S8, 3-(2-(1-azaspiro[3.3]heptan-1-yl)ethyl)-5-fluoro-1H-pyrrolo[2,3-b]pyridine] showed a negative logarithm of the EC50 (pEC50) of 6.45 and an Emax of 56%. Also, on 5-HT2C receptor, the pEC50 was < 5.00 and the Emax came out at 0%.
In the same order, the values of `Fc1cnc2[nH]cc(CCN3CCC3)c2c1` [Compound S9, 3-(2-(azetidin-1-yl)ethyl)-5-fluoro-1H-pyrrolo[2,3-b]pyridine] are 7.68, 83%, 5.83 and 72%.
At 5-HT2A receptor, `Fc1cnc2[nH]cc(CCNC3CCC3)c2c1` [Compound S11, N-(2-(5-fluoro-1H-pyrrolo[2,3-b]pyridin-3-yl)ethyl)cyclobutanamine] gave a pEC50 of 6.87 and an Emax of 80%. Further, at 5-HT2C receptor, the pEC50 was < 5.00 and the maximal response (Emax) stood at 25%.
For `CN(CCc1c[nH]c2ncc(F)cc12)C1CCC1` [Compound S12, N-(2-(5-fluoro-1H-pyrrolo[2,3-b]pyridin-3-yl)ethyl)-N-methylcyclobutanamine] the same measures were 7.10, 84%, 5.47 and 50%.
As to `Fc1cnc2[nH]cc(CCN3CCOCC3)c2c1` [Compound S15, 4-(2-(5-fluoro-1H-pyrrolo[2,3-b]pyridin-3-yl)ethyl)morpholine], the negative-log EC50 (pEC50) is 5.71 at 5-HT2A receptor and < 5.00 on 5-HT2C receptor. Further, the Emax at 5-HT2A receptor was found to be 72%; at 5-HT2C receptor, 0%.
In the same order, the values of `CC1CCN1CCc1c[nH]c2ncc(F)cc12` (centres unmarked) [Compound S16, 3-(2-(2-methylazetidin-1-yl)ethyl)-5-fluoro-1H-pyrrolo[2,3-b]pyridine] are 7.49, 5.96, 81% and 60%.
On to `Fc1cnc2[nH]cc(CCNCC3CC3)c2c1` [Compound S17, N-(cyclopropylmethyl)-2-(5-fluoro-1H-pyrrolo[2,3-b]pyridin-3-yl)ethan-1-amine], for which, on 5-HT2A receptor, the pEC50 is 6.87 and the Emax was 84%. Further, on 5-HT2C receptor, the pEC50 is 5.39 and the Emax came out at 35%. Further, the “5-HT2B % Activation @ 10 μM” value at 5-HT2B receptor turned out to be 7%.
On 5-HT2A receptor, `Fc1cnc2[nH]cc(CCN3CCC4CC43)c2c1` (centres unmarked) [Compound S25, 3-(2-(2-azabicyclo[3.1.0]hexan-2-yl)ethyl)-5-fluoro-1H-pyrrolo[2,3-b]pyridine] gave a pEC50 of 8.05 and an Emax of 87%. Also, at 5-HT2C receptor, the pEC50 was 7.12 and the maximum response (Emax) is 84%. For the same molecule, the “5-HT2B % Activation @ 10 μM” value at 5-HT2B receptor was determined as 41%.
On 5-HT2A receptor, `Fc1cnc2[nH]cc(CCNCc3ccccc3F)c2c1` [Compound S30, 2-(5-fluoro-1H-pyrrolo[2,3-b]pyridin-3-yl)-N-(2-fluorobenzyl)ethan-1-amine] gave a pEC50 of 7.57 and an Emax of 82%. Moreover, on 5-HT2C receptor, the pEC50 is 6.29 and the Emax is 83%.
With `Fc1cccc(CNCCc2c[nH]c3ncc(F)cc23)c1` [Compound S31, 2-(5-fluoro-1H-pyrrolo[2,3-b]pyridin-3-yl)-N-(3-fluorobenzyl)ethan-1-amine], at 5-HT2A receptor, the pEC50 is 7.81 and the Emax was 87%. For the same molecule, on 5-HT2C receptor, the pEC50 was 6.29 and the Emax is 76%.
Regarding `COc1ccccc1CNCCc1c[nH]c2ncc(F)cc12` [Compound S32, 2-(5-fluoro-1H-pyrrolo[2,3-b]pyridin-3-yl)-N-(2-methoxybenzyl)ethan-1-amine], on 5-HT2A receptor, the pEC50 is 8.48 and the Emax was 94%. In addition, on 5-HT2C receptor, the pEC50 was 6.69 and the Emax was determined as 89%.
On 5-HT2A receptor, `COc1cccc(CNCCc2c[nH]c3ncc(F)cc23)c1` [Compound S33, 2-(5-fluoro-1H-pyrrolo[2,3-b]pyridin-3-yl)-N-(3-methoxybenzyl)ethan-1-amine] showed a pEC50 of 8.08 and an Emax of 82%. At 5-HT2C receptor, this molecule showed a pEC50 of 6.61 and an Emax of 87%.
As to `Fc1cnc2[nH]cc(CCNCc3ccccc3)c2c1` [Compound S34, N-benzyl-2-(5-fluoro-1H-pyrrolo[2,3-b]pyridin-3-yl)ethan-1-amine], on 5-HT2A receptor, the pEC50 is 7.74 and the Emax was found to be 90%. Also, at 5-HT2C receptor, the negative logarithm of the EC50 (pEC50) is 6.50 and the Emax is 84%.
On to `CN(CCc1c[nH]c2ncc(OC(F)(F)F)cc12)C1CC1` [Compound S41, N-methyl-N-(2-(5-(trifluoromethoxy)-1H-pyrrolo[2,3-b]pyridin-3-yl)ethyl)cyclopropanamine], for which, at 5-HT2A receptor, the pEC50 was 6.09 and the maximum response (Emax) was 41%. Besides, on 5-HT2C receptor, the pEC50 is < 5.00 and the maximal response (Emax) came out at 0%. Moreover, the “5-HT2B % Activation @ 10 μM” value on 5-HT2B receptor was 0%.
At 5-HT2A receptor, `CN(CCc1c[nH]c2ncc(Cl)cc12)C1CC1` [Compound S42, N-(2-(5-chloro-1H-pyrrolo[2,3-b]pyridin-3-yl)ethyl)-N-methylcyclopropanamine] gave a pEC50 of 6.84 and a maximum response (Emax) of 58%. On 5-HT2C receptor, this molecule had a pEC50 of 5.96 and an Emax of 75%. Further, on 5-HT2B receptor, the “5-HT2B % Activation @ 10 μM” value was found to be 15%.
Turning to `CN(CCc1c[nH]c2ncc(F)cc12)CC1CC1` [Compound S43, N-(cyclopropylmethyl)-2-(5-fluoro-1H-pyrrolo[2,3-b]pyridin-3-yl)-N-methylethan-1-amine], on 5-HT2A receptor, the pEC50 was 6.81 and the Emax is 71%. At 5-HT2C receptor, this molecule had a pEC50 of 5.56 and an Emax of 55%.
As for `COc1cnc2[nH]cc(CCN(C)C3CC3)c2c1` [Compound S44, N-(2-(5-methoxy-1H-pyrrolo[2,3-b]pyridin-3-yl)ethyl)-N-methylcyclopropanamine], on 5-HT2A receptor, the pEC50 was 8.02 and the Emax amounted to 82%. Besides, on 5-HT2C receptor, the negative-log EC50 (pEC50) is 5.55 and the Emax amounted to 45%. In addition, the “5-HT2B % Activation @ 10 μM” value at 5-HT2B receptor amounted to 1%.
Consider `COc1cnc2[nH]cc(CCN3CCC3)c2c1` [Compound S45, 3-(2-(azetidin-1-yl)ethyl)-5-methoxy-1H-pyrrolo[2,3-b]pyridine], for which the results for the pEC50 at 5-HT2A receptor and on 5-HT2C receptor were 7.62 and < 5.00, respectively. The values for the Emax on 5-HT2A receptor and on 5-HT2C receptor were 86% and 11%, respectively. On 5-HT2B receptor, the “5-HT2B % Activation @ 10 μM” value is listed as 0%.
With `COc1cnc2[nH]cc(CCN3CCCC3)c2c1` [Compound S46, 5-methoxy-3-(2-(pyrrolidin-1-yl)ethyl)-1H-pyrrolo[2,3-b]pyridine], the pEC50 on 5-HT2A receptor was 7.33; at 5-HT2C receptor, 5.38. Further, the Emax on 5-HT2A receptor worked out at 91%; on 5-HT2C receptor, 43%. In addition, the “5-HT2B % Activation @ 10 μM” value on 5-HT2B receptor came out at 3%.
